One experiment has as its target T1, Human FAAH (Homo sapiens, UniProt O00519).
T1 construct: made in house
T1 sequence (O00519 1-579): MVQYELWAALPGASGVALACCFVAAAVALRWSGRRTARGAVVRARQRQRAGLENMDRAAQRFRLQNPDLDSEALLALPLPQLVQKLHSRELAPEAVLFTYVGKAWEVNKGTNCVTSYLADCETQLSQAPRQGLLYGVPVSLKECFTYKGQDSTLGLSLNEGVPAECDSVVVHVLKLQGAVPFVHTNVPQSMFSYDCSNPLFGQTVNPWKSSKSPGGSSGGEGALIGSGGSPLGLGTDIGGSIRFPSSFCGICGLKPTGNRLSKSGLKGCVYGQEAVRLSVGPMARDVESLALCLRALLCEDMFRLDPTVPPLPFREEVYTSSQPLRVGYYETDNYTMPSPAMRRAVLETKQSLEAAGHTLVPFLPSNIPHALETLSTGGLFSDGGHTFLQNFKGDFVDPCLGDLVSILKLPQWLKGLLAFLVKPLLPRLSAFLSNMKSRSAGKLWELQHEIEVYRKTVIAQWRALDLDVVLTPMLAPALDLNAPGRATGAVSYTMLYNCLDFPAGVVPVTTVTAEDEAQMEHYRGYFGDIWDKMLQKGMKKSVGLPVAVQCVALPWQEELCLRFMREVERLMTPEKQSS
Briefly: FAAH assay (glutamate dehydrogenase-coupled, oleamide substrate, absorbance at 340 nm). Format: biochemical. The following applies: irreversible inhibition, 1-4 nM FAAH, pH 7.4, 30° C., 90 min. On the procedure:
The FAAH assay was carried out in 384-well clear polystyrene plates in a total volume of 50 μl per well. All percents are by volume. To each well, was placed the reaction mixture (40 μl) containing 1-4 nM FAAH, 50 mM NaPi, pH 7.4, 3 mM α-ketoglutarate, 0.15 mM NADH, 7.5 U/ml glutamate dehydrogenase, 2 mM ADP, 1 mM EDTA, and 0.1% Triton X-100 (The concentration shown for each component is the final concentration in the assay). […] This was immediately followed by the addition of 5 μl oleamide (500 μM) dissolved in 75% EtOH/25% DMSO and the reaction mixture was mixed for 1.5 min. The final concentrations of DMSO and EtOH in the assay were each 7.5%.
Initial velocity data (V) were obtained from the slopes of the initial progressive curves. They were plotted as a function of substrate concentration and fit to the Michaelis-Menten equation (1) using Prism (GraphPad Software, Inc., San Diego, Calif.) software to obtain Km and Vmax values.
To obtain potencies of irreversible inhibitors, progressive curves consistent with first order inhibition kinetics (two-step irreversible inhibition mechanism) were fit to equation (2) by nonlinear least squares regressions to determine kobs values at each inhibitor concentration, where [P]t is the absorbance at time t, V0 is a constant related to the steady state rate of the uninhibited reaction, and kobs is the first order rate constant for enzyme inactivation. The inhibitor dissociation constant (Ki) and the first order rate
[formula] constant of enzyme inactivation at infinite inhibitor concentration (kinact) were then obtained by fitting the kobs vs. [I] curves to equation (3).
Regarding “4-(3-ethoxy-5-{[5-(trifluoromethyl)pyridin-2-yl]oxy}benzylidene)-N-pyridin-3-ylpiperidine-1-carboxamide trifluoroacetate [Example 74]”, the “hFAAH kinact/Ki” value turned out to be 9870 M⁻¹ s⁻¹.
Regarding `O=C(Nc1cccnc1)N1CCC(=Cc2cccc(Oc3ccc(OCC(F)(F)F)cc3)c2)CC1` [Example 99, N-pyridin-{3-yl-4-3-[4-(2,2,2-trifluoroethoxy)phenoxy]benzylidene}piperidine-1-carboxamide], the “hFAAH kinact/Ki” value amounted to 1130 M⁻¹ s⁻¹.
The same measure, in the same setting: next, `O=C(Nc1ccccn1)N1CCC(=Cc2cccc(Oc3ccc(C(F)(F)F)cn3)c2)CC1` [Example 9]: 3660 M⁻¹ s⁻¹; `Cc1cnc(NC(=O)N2CCC(=Cc3cccc(Oc4ccc(C(F)(F)F)cn4)c3)CC2)cn1` [Example 22, N-(5-methyl-pyrazin-2-yll)-4-(3-{[5-(trifluoromethyl)pyridin-2-yl]oxy}benzylidene)piperidine-1-carboxamide]: 12000 M⁻¹ s⁻¹.

The same experiment, now with this note: irreversible inhibition, 1-4 nM FAAH, pH 7.4, 30° C., 90 min, read-out: hFAAH kinact/Ki.
As for `O=C(Nc1ccccc1F)N1CCC(=Cc2cccc(Oc3ccc(C(F)(F)F)cn3)c2)CC1` [Example 29, 4-(3-(5-(trifluoromethyl)pyridin-2-yloxy)benzylidene)-N-(2-fluorophenyl)piperidine-1-carboxamide], the kinact/KI was determined as 3370 M⁻¹ s⁻¹.
On to `Cc1nccnc1NC(=O)N1CCC(=Cc2cccc(Oc3ccc(C(F)(F)F)cn3)c2)CC1` [Example 24, N-(3-methylpyrazin-2-yl)-4-(3-{[5-(trifluoromethyl)pyridin-2-yl]oxy}benzylidene)piperidine-1-carboxamide], for which the kinact/KI worked out at 2410 M⁻¹ s⁻¹.
On the same count and under the same terms, next, `O=C(Nc1cccnc1)N1CCC(=Cc2cccc(Oc3ccc(C4CC4)cn3)c2)CC1` [Example 38, 4-(3-(5-cyclopropylpyridin-2-yloxy)benzylidene)-N-(pyridin-3-yl)piperidine-1-carboxamide]: 9180 M⁻¹ s⁻¹; `O=C(Nc1cccnn1)N1CCC(=Cc2cccc(Oc3ccc(C4CC4)cn3)c2)CC1` [Example 39, 4-(3-(5-cyclopropylpyridin-2-yloxy)benzylidene)-N-(pyridazin-3-yl)piperidine-1-carboxamide]: 18200 M⁻¹ s⁻¹.
Turning to `O=C(Nc1cccnn1)N1CCC(=Cc2cccc(Oc3ccccc3)n2)CC1` [Example 91, 4-((6-phenoxypyridin-2-yl)methylene)-N-(pyridazin-3-yl)piperidine-1-carboxamide], the kinact/KI stood at 636 M⁻¹ s⁻¹.
Regarding `COc1ccc(NC(=O)N2CCC(=Cc3cccc(Oc4ccc(C(F)(F)F)cn4)c3)CC2)c(OC)n1` [Example 127, N-(2,6-dimethoxypyridin-3-yl)-4-(3-{[5-(trifluoromethyl)pyridin-2-yl]oxy}benzylidene)piperidine-1-carboxamide], the kinact/KI turned out to be 675 M⁻¹ s⁻¹.
Still for that read-out and setting: next, `Cc1ccc(Oc2cccc(C=C3CCN(C(=O)Nc4cccnn4)CC3)c2)nc1` [Example 45, 4-(3-(5-methylpyridin-2-yloxy)benzylidene)-N-(pyridazin-3-yl)piperidine-1-carboxamide]: 12800 M⁻¹ s⁻¹; `Cc1cccnc1Oc1cccc(C=C2CCN(C(=O)Nc3cccnc3)CC2)c1` [Example 42, 4-(3-(3-methylpyridin-2-yloxy)benzylidene)-N-(pyridin-3-yl)piperidine-1-carboxamide]: 834 M⁻¹ s⁻¹.
On the same count and under the same terms, next, `Cc1cc(NC(=O)N2CCC(=Cc3cccc(Oc4ccc(C(F)(F)F)cn4)c3)CC2)n[nH]1` [Example 139, N-(5-methyl-1H-pyrazol-3-yl)-4-(3-{[5-(trifluoromethyl)pyridin-2-yl]oxy}benzylidene)piperidine-1-carboxamide]: 306 M⁻¹ s⁻¹.
The same measure, in the same setting: for `Cc1cccc(Oc2cccc(C=C3CCN(C(=O)Nc4cccnn4)CC3)c2)n1` [Example 41, 4-(3-(6-methylpyridin-2-yloxy)benzylidene)-N-(pyridazin-3-yl)piperidine-1-carboxamide] the value was 687 M⁻¹ s⁻¹; for `Cc1cc(NC(=O)N2CCC(=Cc3cccc(Oc4ccc(C(F)(F)F)cn4)c3)CC2)cnc1C` [Example 131, N-(5,6-dimethylpyridin-3-yl)-4-(3-{[5-(trifluoromethyl)pyridin-2-yl]oxy}benzylidene)piperidine-1-carboxamide], 1110 M⁻¹ s⁻¹; for `COc1cncc(NC(=O)N2CCC(=Cc3cccc(Oc4ccc(C(F)(F)F)cn4)c3)CC2)n1` [Example 23, N-(6-methoxypyrazin-2-yl)-4-(3-{[5-(trifluoromethyl)pyridin-2-yl]oxy}benzylidene)piperidine-1-carboxamide], 2910 M⁻¹ s⁻¹.
In the case of `CC(C)Oc1ccc(Oc2cccc(C=C3CCN(C(=O)Nc4cccnn4)CC3)c2)nc1` [Example 52, 4-(3-(5-isopropoxypyridin-2-yloxy)benzylidene)-N-(pyridazin-3-yl)piperidine-1-carboxamide], the kinact/KI is 4090 M⁻¹ s⁻¹.
Same read-out and setting: next, `O=C(Nc1cccnn1)N1CCC(=Cc2cccc(Oc3ccc(N4CCC4)cn3)c2)CC1` [Example 87, 4-(3-(5-(azetidin-1-yl)pyridin-2-yloxy)benzylidene)-N-(pyridazin-3-yl)piperidine-1-carboxamide]: 1840 M⁻¹ s⁻¹.
On the same count and under the same terms, next, `O=C(Nc1cccnn1)N1CCC(=Cc2cccc(Oc3ncccn3)c2)CC1` [Example 103, N-pyridazin-3-yl-4-[3-(pyrimidin-2-yloxy)benzylidene]piperidine-1-carboxamide]: 162 M⁻¹ s⁻¹.
On the same count and under the same terms, next, `O=C(Nc1cccnn1)N1CCC(=Cc2cccc(Oc3nc(-c4ccccc4)ns3)c2)CC1` [Example 125, 4-{3-[(3-phenyl-1,2,4-thiadiazol-5-yl)oxy]benzylidene}-N-pyridazin-3-ylpiperidine-1-carboxamide]: 140 M⁻¹ s⁻¹; `Cn1ccc(NC(=O)N2CCC(=Cc3cccc(Oc4ccc(C(F)(F)F)cn4)c3)CC2)n1` [Example 77, N-(1-methyl-1H-pyrazol-3-yl)-4-(3-{[5-(trifluoromethyl)pyridin-2-yl]oxy}benzylidene)piperidine-1-carboxamide]: 339 M⁻¹ s⁻¹.
`COc1cccc2cnc(Oc3cccc(C=C4CCN(C(=O)Nc5cccnn5)CC4)c3)nc12` [Example 101, 4-{3-[(8-methoxyquinazolin-2-yl)oxy]benzylidene}-N-pyridazin-3-ylpiperidine-1-carboxamide]: the kinact/KI is 209 M⁻¹ s⁻¹.
With `Cc1noc(NC(=O)N2CCC(=Cc3cccc(Oc4ccc(F)cc4)c3)CC2)c1C` [Example 19, N-(3,4-dimethylisoxazol-5-yl)-4-[3-(4-fluorophenoxy)benzylidene]piperidine-1-carboxamide], the kinact/KI was found to be 3450 M⁻¹ s⁻¹.
On the same count and under the same terms, next, `Cc1ccnc(Oc2cccc(C=C3CCN(C(=O)Nc4cccnc4)CC3)c2)c1` [Example 72, 4-{3-[(4-methylpyridin-2-yl)oxy]benzylidene}-N-pyridin-3-ylpiperidine-1-carboxamide]: 681 M⁻¹ s⁻¹.
In the case of `Cc1nc2c(c(Oc3cccc(C=C4CCN(C(=O)Nc5cccnn5)CC4)c3)n1)CCN(C)C2` [Example 114, 4-{3-[(2,7-dimethyl-5,6,7,8-tetrahydropyrido[3,4-d]pyrimidin-4-yl)oxy]benzylidene}-N-pyridazin-3-ylpiperidine-1-carboxamide], the kinact/KI was less than 10 M⁻¹ s⁻¹.
Still for that read-out and setting: next, `COc1ccc(Oc2cccc(C=C3CCN(C(=O)Nc4cccnn4)CC3)c2)c(C)n1` [Example 97, 4-{3-[(6-methoxy-2-methylpyridin-3-yl)oxy]benzylidene}-N-pyridazin-3-ylpiperidine-1-carboxamide]: 394 M⁻¹ s⁻¹.
Take `O=C(Nc1cnccn1)N1CCC(=Cc2cccc(Oc3ccc(C(F)(F)F)cn3)c2)CC1` [Example 4, N-pyrazin-2-yl-4-(3-{[5-(trifluoromethyl)pyridin-2-yl]oxy}benzylidene)piperidine-1-carboxamide]: the kinact/KI was 25800 M⁻¹ s⁻¹.
Still for that read-out and setting: next, `Cc1ccc(NC(=O)N2CCC(=Cc3cccc(Oc4ccc(C(F)(F)F)cn4)c3)CC2)cn1` [Example 3, N-(6-methylpyridin-3-yl)-4-(3-{[5-(trifluoromethyl)pyridin-2-yl]oxy}benzylidene)piperidine-1-carboxamide]: 7800 M⁻¹ s⁻¹.
Still for that read-out and setting: for `Cc1ccc(NC(=O)N2CCC(=Cc3cccc(Oc4ccc(C(F)(F)F)cc4)c3)CC2)cn1` [Example 56, 4-(3-(4-(trifluoromethyl)phenoxy)benzylidene)-N-(6-methylpyridin-3-yl)piperidine-1-carboxamide] the value was 3580 M⁻¹ s⁻¹.

These data come from patent US8044052B2, “Biaryl ether urea compounds” (Pfizer Inc., priority 2006, dated 2011).
